This note sets out measurements from patent US20110053949A1, “4-[3-(ARYLOXY)BENZYLIDENE]-3-METHYL PIPERIDINE ARYL CARBOXAMIDE COMPOUNDS USEFUL AS FAAH INHIBITORS” (PFIZER INC., priority 2008, published 2011).

Where only a bound is given, the exact number is not on record here.

One experiment addresses T1, Human FAAH (Homo sapiens, UniProt O00519).
T1 construct: made in house
T1 sequence (O00519 1-579): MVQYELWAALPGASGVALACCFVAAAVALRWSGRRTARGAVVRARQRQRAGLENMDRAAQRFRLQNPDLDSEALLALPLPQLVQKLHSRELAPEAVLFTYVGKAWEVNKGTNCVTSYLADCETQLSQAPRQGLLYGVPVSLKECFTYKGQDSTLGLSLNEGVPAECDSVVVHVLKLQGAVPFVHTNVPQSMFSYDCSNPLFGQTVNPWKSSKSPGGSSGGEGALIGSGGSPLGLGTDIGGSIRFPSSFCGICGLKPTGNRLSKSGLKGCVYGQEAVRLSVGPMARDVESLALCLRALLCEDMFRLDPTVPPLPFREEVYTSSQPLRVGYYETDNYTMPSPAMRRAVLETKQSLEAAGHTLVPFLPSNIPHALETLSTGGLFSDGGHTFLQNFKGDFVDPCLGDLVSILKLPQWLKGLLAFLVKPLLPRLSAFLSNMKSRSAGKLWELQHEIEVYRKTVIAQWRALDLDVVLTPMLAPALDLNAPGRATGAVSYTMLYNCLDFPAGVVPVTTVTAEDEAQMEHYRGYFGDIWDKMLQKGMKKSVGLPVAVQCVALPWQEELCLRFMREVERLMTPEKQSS
The experiment is described as follows: FAAH enzyme assay (glutamate dehydrogenase coupled, oleamide substrate), irreversible inhibition kinetics. In kind it is biochemical. The settings on record: human FAAH, 30° C., pH 7.4. As to the method: A FAAH enzyme assay may be carried out as described in WO2006/085196 in 384-well clear polystyrene plates in a total volume of 50 μl per well. All percents are by volume. To each well was placed the reaction mixture (40 μl) containing 1-4 nM FAAH, 50 mM NaPi, pH 7.4, 3 mM α-ketoglutarate, 0.15 mM NADH, 7.5 U/ml glutamate dehydrogenase, 2 mM ADP, 1 mM EDTA, and 0.1% Triton X-100 (The concentration shown for each component is the final concentration in the assay). To this mixture was added 5 μl of a compound of Examples 1 to 20 at various concentrations prepared in 50% DMSO (or 5 μl 50% DMSO for controls). This was immediately followed by the addition of 5 μl oleamide (500 μM) dissolved in 75% EtOH/25% DMSO and the reaction mixture is mixed for 1.5 min. The final concentrations of DMSO and EtOH in the assay were each 7.5%. The reactions was then incubated at 30° C. and the absorbance at 340 nm was collected over a period of 90 min with readings taken in 30-second intervals using SpectraMax Plus^384 Microplate Spectrophotometer (Molecular Devices, Sunnyvale, Calif.). Human FAAH used in the assay was prepared as described in the patent application WO 2006/067613. The purity of the enzyme used was greater than 98% based on an analysis by SDS-polyacrylamide gel electrophoresis followed by Coomassie Blue staining.
Initial velocity data (V) is obtained from the slopes of the initial progressive curves. They are plotted as a function of substrate concentration and fit to the Michaelis-Menten equation (1) using Prism (GraphPad Software, Inc., San Diego, Calif.) software to obtain Km and Vmax values.
To obtain potencies of irreversible inhibitors, progressive curves consistent with first order inhibition kinetics (two-step irreversible inhibition mechanism) are fit to equation (2) by nonlinear least squares regressions to determine kobs values at each inhibitor concentration, where [P]t is the absorbance at time t, V0 is a constant related to the steady state rate of the uninhibited reaction, and kobs is the first order rate constant for enzyme inactivation. The inhibitor dissociation constant (Ki) and the first order rate
(2) constant of enzyme inactivation at infinite inhibitor concentration (kinact) are then obtained by fitting the kobs vs. [I] curves to equation (3).
In the case of `CC1CN(C(=O)Nc2cccnn2)CC/C1=C\c1cccc(Oc2ccc(C(F)(F)F)cn2)c1` (single isomer, unassigned) [Example 1, (4E)-3-methyl-N-pyridazin-3-yl-4-(3-{[5-(trifluoromethyl)pyridin-2-yl]oxy}benzylidene)piperidine-1-carboxamide], the “hFAAH Kinact/Ki” value worked out at 4590 M⁻¹ s⁻¹.

In the case of `CC1CN(C(=O)Nc2cccnn2)CC/C1=C\c1cccc(Oc2ccc(C(F)(F)F)cn2)c1` (single isomer, unassigned) [Example 2, (4E)-3-methyl-N-pyridazin-3-yl-4-(3-{[5-(trifluoromethyl)pyridin-2-yl]oxy}benzylidene)piperidine-1-carboxamide], the “hFAAH Kinact/Ki” value turned out to be 254 M⁻¹ s⁻¹.

Regarding `CC1CN(C(=O)Nc2cccnc2)CC/C1=C\c1cccc(Oc2ccc(C(F)(F)F)cn2)c1` (single isomer, unassigned) [Example 3, (4E)-3-methyl-N-pyridin-3-yl-4-(3-{[5-(trifluoromethyl)pyridin-2-yl]oxy}benzylidene)piperidine-1-carboxamide], the “hFAAH Kinact/Ki” value is 4890 M⁻¹ s⁻¹.

On to `CC1CN(C(=O)Nc2cccnc2)CC/C1=C\c1cccc(Oc2ccc(C(F)(F)F)cn2)c1` (single isomer, unassigned) [Example 4, (4E)-3-methyl-N-pyridin-3-yl-4-(3-{[5-(trifluoromethyl)pyridin-2-yl]oxy}benzylidene)piperidine-1-carboxamide], for which the “hFAAH Kinact/Ki” value came out at 71.4 M⁻¹ s⁻¹.

Regarding `CC1CN(C(=O)Nc2cccnc2)CC/C1=C\c1cccc(Oc2ncc(C(F)(F)F)cn2)c1` (single isomer, unassigned) [Example 16, (4E)-3-methyl-N-pyridin-3-yl-4-(3-{[5-(trifluoromethyl)pyrimidin-2-yl]oxy}benzylidene)piperidine-1-carboxamide], the “hFAAH Kinact/Ki” value worked out at 6930 M⁻¹ s⁻¹.

As for `CC1CN(C(=O)Nc2cccnc2)CC/C1=C\c1cccc(Oc2ncc(C(F)(F)F)cn2)c1` (single isomer, unassigned) [Example 17, (4E)-3-methyl-N-pyridin-3-yl-4-(3-{[5-(trifluoromethyl)pyrimidin-2-yl]oxy}benzylidene)piperidine-1-carboxamide], the “hFAAH Kinact/Ki” value is <15.5 M⁻¹ s⁻¹.

Consider “(4E)-N-1,2-benzisoxazol-3-yl-3-methyl-4-(3-{[5-(trifluoromethyl)pyridin-2-yl]oxy}benzylidene)piperidine-1-carboxamide [Example 13]”, for which the “hFAAH Kinact/Ki” value is 733 M⁻¹ s⁻¹.

“(4E)-N-(6-methoxypyridazin-3-yl)-3-methyl-4-(3-{[5-(trifluoromethyl)pyridin-2-yl]oxy}benzylidene)piperidine-1-carboxamide [Example 12]”: the “hFAAH Kinact/Ki” value turned out to be 2500 M⁻¹ s⁻¹.

The experiment is the same for the next values; noted with them: pH 7.4, human FAAH, 30° C., read-out: hFAAH Kinact/Ki.
On to `CC1CN(C(=O)Nc2cccnc2)CC/C1=C\c1cccc(Oc2ccc(Br)cn2)c1` (racemic) [Example 14, (4E)-4-{3-[(5-bromopyridin-2-yl)oxy]benzylidene}-3-methyl-N-pyridin-3-ylpiperidine-1-carboxamide], for which the kinact/KI stood at 747 M⁻¹ s⁻¹.

For the molecule `CC1CN(C(=O)Nc2cccnc2)CC/C1=C\c1cccc(Oc2ccc(Cl)cn2)c1` (racemic) [Example 15, (4E)-4-{3-[(5-chloropyridin-2-yl)oxy]benzylidene}-3-methyl-N-pyridin-3-ylpiperidine-1-carboxamide], the kinact/KI stood at 4170 M⁻¹ s⁻¹.

As for `COc1ccc(NC(=O)N2CC/C(=C\c3cccc(Oc4ccc(C(F)(F)F)cn4)c3)C(C)C2)cn1` (single isomer, unassigned) [Example 5, (4E)-N-(6-methoxypyridin-3-yl)-3-methyl-4-(3-{[5-(trifluoromethyl)pyridin-2-yl]oxy}benzylidene)piperidine-1-carboxamide], the kinact/KI amounted to 2850 M⁻¹ s⁻¹.

For `CC1CN(C(=O)Nc2cnc3[nH]ccc3c2)CC/C1=C\c1cccc(Oc2ccc(C(F)(F)F)cn2)c1` (single isomer, unassigned) [Example 6, (4E)-3-methyl-N-1H-pyrrolo[2,3-b]pyridin-5-yl-4-(3-{[5-(trifluoromethyl)pyridin-2-yl]oxy}benzylidene)piperidine-1-carboxamide], the kinact/KI is 1420 M⁻¹ s⁻¹.

Turning to `Cc1cncc(NC(=O)N2CC/C(=C\c3cccc(Oc4ccc(C(F)(F)F)cn4)c3)C(C)C2)c1` (single isomer, unassigned) [Example 7, (4E)-3-methyl-N-(5-methylpyridin-3-yl)-4-(3-{[5-(trifluoromethyl)pyridin-2-yl]oxy}benzylidene)piperidine-1-carboxamide], the kinact/KI was found to be 1290 M⁻¹ s⁻¹.

For `CC1CN(C(=O)Nc2ccc(C#N)nc2)CC/C1=C\c1cccc(Oc2ccc(C(F)(F)F)cn2)c1` (single isomer, unassigned) [Example 8, (4E)-N-(6-cyanopyridin-3-yl)-3-methyl-4-(3-{[5-(trifluoromethyl)pyridin-2-yl]oxy}benzylidene)piperidine-1-carboxamide], the kinact/KI came out at 2460 M⁻¹ s⁻¹.

Regarding `COc1cnc(NC(=O)N2CC/C(=C\c3cccc(Oc4ccc(C(F)(F)F)cn4)c3)C(C)C2)cn1` (single isomer, unassigned) [Example 9, (4E)-N-(5-methoxypyrazin-2-yl)-3-methyl-4-(3-{[5-(trifluoromethyl)pyridin-2-yl]oxy}benzylidene)piperidine-1-carboxamide], the kinact/KI stood at 2390 M⁻¹ s⁻¹.

As to `Cc1cnc(NC(=O)N2CC/C(=C\c3cccc(Oc4ccc(C(F)(F)F)cn4)c3)C(C)C2)cn1` (single isomer, unassigned) [Example 10, (4E)-3-methyl-N-(5-methylpyrazin-2-yl)-4-(3-{[5-(trifluoromethyl)pyridin-2-yl]oxy}benzylidene)piperidine-1-carboxamide], the kinact/KI amounted to 3390 M⁻¹ s⁻¹.

For the molecule `COc1cncc(NC(=O)N2CC/C(=C\c3cccc(Oc4ccc(C(F)(F)F)cn4)c3)C(C)C2)n1` (single isomer, unassigned) [Example 11, (4E)-N-(6-methoxypyrazin-2-yl)-3-methyl-4-(3-{[5-(trifluoromethyl)pyridin-2-yl]oxy}benzylidene)piperidine-1-carboxamide], the kinact/KI is 1880 M⁻¹ s⁻¹.

The target of another experiment is T2, rFAAH (Rattus norvegicus, UniProt P97612).
T2 sequence (P97612 1-579): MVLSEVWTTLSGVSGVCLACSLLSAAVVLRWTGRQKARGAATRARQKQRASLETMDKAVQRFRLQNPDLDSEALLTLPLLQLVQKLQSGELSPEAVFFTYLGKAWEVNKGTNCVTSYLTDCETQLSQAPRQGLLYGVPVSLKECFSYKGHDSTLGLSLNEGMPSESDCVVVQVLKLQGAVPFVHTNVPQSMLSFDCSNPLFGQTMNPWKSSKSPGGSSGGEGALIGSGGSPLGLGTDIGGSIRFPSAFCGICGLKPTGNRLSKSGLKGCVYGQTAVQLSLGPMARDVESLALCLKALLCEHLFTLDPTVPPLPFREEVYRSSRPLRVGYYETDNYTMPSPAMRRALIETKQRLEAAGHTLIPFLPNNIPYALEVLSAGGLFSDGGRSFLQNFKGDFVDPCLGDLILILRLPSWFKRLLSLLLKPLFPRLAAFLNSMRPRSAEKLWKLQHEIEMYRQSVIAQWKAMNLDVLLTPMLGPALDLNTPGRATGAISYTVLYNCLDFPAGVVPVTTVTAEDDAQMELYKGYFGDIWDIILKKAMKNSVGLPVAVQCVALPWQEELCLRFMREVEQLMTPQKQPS
The experiment is described as follows: FAAH_KINACTR rFAAH kobs/I. The format is biochemical. The note with it: further data table, substances given by IUPAC name only.
For `CC1CN(C(=O)Nc2cccnn2)CC/C1=C\c1cccc(Oc2ccc(C(F)(F)F)cn2)c1` (stereo not drawn) [(4E)-3-methyl-N-pyridazin-3-yl-4-(3-{[5-(trifluoromethyl)pyridin-2-yl]oxy}benzylidene)piperidine-1-carboxamide], the “FAAH_KINACTR:rFAAH:kobs/I” value was 3730.
